Experimental data as given in PubChem BioAssay AID179 (DTP/NCI, 2004).
pEC50, pIC50: −log10 of the molar value. The source made the active and inactive calls.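 How the source made its calls: active means compounds giving half or more protection of infected cells from virus-caused growth loss, again on retest; inactive means the rest.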 Where a SMILES comes first, the peptide text is derived from it. [ ]: non-standard residue; d: D form. The star is where a group is joined. ξ: configuration not given here. ξD = NC(CC(=O)O)C(=O)O; Ac3c = NC1(C(=O)O)CC1; Boc = CC(C)(C)OC(=O)*; OBn = c1ccc(CO*)cc1

Test system: CEM cells HIV-1 protection, formazan growth assay
Assay: NCI AIDS Antiviral Assay
Conditions: for pIC50: measured here: growth of uninfected CEM cells
Method in brief: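 Steps: treat uninfected and HIV-1-infected human CEM cells at five drug levels; quantify growth by soluble formazan; retest any compound reaching 50% protection; classify actives from the retest.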

| Compound | pEC50 | pIC50 | outcome |
| --- | --- | --- | --- |
| CCOC(=O)C(C)(C)Oc1ccc(Cl)cc1 | < 3.70 | < 3.70 | – |
| C=C1C2CC[C@@]3(CC[C@@H]4[C@@]5(C)CCC[C@@]4(CN4CCO[C@H]45)[C@@H]3C2)[C@@H]1O | – | – | inactive |
| C1=Nc2ccccc2/C1=C/c1c[nH]c2ccccc12 | 7.20 | < 3.70 | – |
| NC(N)=NS(=O)(=O)c1ccc(Nc2c3ccccc3nc3c(C(=O)NNCCO)cccc23)cc1 | < 3.70 | 5.28 | – |
| CC(NC(=O)C(Cc1ccc(OC(=O)c2ccccc2)cc1)NC(=O)OC(C)(C)C)C(=O)NCC(=O)NC(Cc1ccccc1)C(=O)NN (stereo unspecified) | < 3.70 | 4.93 | – |
| O=Cc1ccc(-c2cccs2)s1 | – | – | inactive |
| C=C1C(OC(=O)C(OC(C)=O)C(c2ccccc2)N(C)C)C[C@H](O)[C@]2(C)C1C[C@@H]1CC(OC(C)=O)C(C)=C([C@@H](OC(C)=O)C2O)C1(C)C (stereo partly specified) | – | – | inactive |
| ClC1c2ccccc2C2(c3ccccc3)OOC1(c1ccccc1)O2 (stereo unspecified) | – | – | inactive |
| CC1=C2C(O)C(C(C)CO)C(O)CC2(C)C(O)CC1 (stereo unspecified) | – | – | inactive |
| N#Cc1c(NC(=S)NC(=O)c2ccccc2)nc2c(c1-c1ccccc1)CCC2 | < 4.00 | 4.03 | – |
| CN(Cc1cnc2nc(N)nc(N)c2n1)c1ccc(C(=O)NC(CCC(=O)NCCC(P(=O)(O)O)P(=O)(O)O)C(=O)O)cc1 (stereo unspecified) | < 3.70 | 5.44 | – |
| COC(=O)C1(NC(=O)C(CC(=O)OCc2ccccc2)NC(=O)OC(C)(C)C)CC1 (stereo unspecified) (Boc-[ξD](OBn)-[Ac3c]-OMe) | < 3.70 | < 3.70 | – |
| C=CCN1/C(=C(\C#N)c2nc3ccccc3[nH]2)Sc2c1nc[nH]c2=O | < 4.97 | < 4.97 | – |
| Cc1cc(O)c2c(=O)c3ccccc3[nH]c2c1 | < 3.70 | 4.39 | – |
| CCN(CC)CCOc1ccc(C(O)(Cc2ccc(OC)cc2)c2ccccc2)cc1 (stereo unspecified) | – | – | inactive |
| O=c1c(SCc2cccc(F)c2)c(SCc2cccc(F)c2)cnn1-c1ccccc1 | < 4.52 | 4.66 | – |
| O=CNc1ccc(S(=O)(=O)c2ccc(NC=O)cc2)cc1 | – | – | inactive |
| CCOP(=O)(OCC)C(N)c1ccc(OC)cc1 (stereo unspecified) | < 3.09 | < 3.09 | – |
| CCCCCCCCCCCCCC(=O)OCC1OC(n2cc(F)c(=O)[nH]c2=O)C(N)C(OC(=O)CCCCCCCCCCCCC)C1O (stereo unspecified) | < 5.13 | < 5.13 | – |
| CC(C)=CCC1=C(O)C(CC=C(C)C)(CC=C(C)C)C(=O)C(C(=O)C(C)C)=C1O | < 4.47 | 5.15 | – |
| COc1ccccc1C1ON=C(c2ccc([N+](=O)[O-])cc2)N1C12CC3CC(CC(C3)C1)C2 (stereo unspecified) | < 3.70 | < 3.70 | – |

| Compound | pEC50 | pIC50 | outcome |
| --- | --- | --- | --- |
| C/C(Cl)=N/OC(=O)Nc1ccc(F)c([N+](=O)[O-])c1 | < 3.70 | 5.49 | – |
| C(=C\c1ccccc1)/Cn1nc(-c2ccccc2)nc1-c1cnccn1 | 3.84 | < 3.70 | – |
| CCCCC1=NNC(=O)C1 | < 3.70 | < 3.70 | – |
| O=C1CSC2=NC3=C(COC/C3=C\c3ccc(Br)cc3)C(c3ccc(Br)cc3)N12 (stereo unspecified) | – | – | inactive |
| O=C(CC(=O)c1cccc([N+](=O)[O-])c1)C(=O)Nc1nc([N+](=O)[O-])cs1 | < 4.70 | < 4.70 | – |
| O=P1(Nc2ccc(/C=C3\C=Cc4ccccc43)cc2)NCCCO1 (stereo unspecified) | < 4.40 | 4.64 | – |
| O=C(O)CCC(NC(=O)/C(=C/c1ccccc1)NC(=O)c1ccccc1)C(=O)O (stereo unspecified) | < 3.70 | < 3.70 | – |
| Nc1nc(Cl)cc(NCC2(CO)CC(OCc3ccccc3)C2)n1 (stereo unspecified) | < 3.70 | 5.22 | – |
| CN1CCC2CC1c1ccn(C)c1C2=O (stereo unspecified) | < 2.91 | < 2.91 | – |
| CN(C)CCSc1cc(-c2ccccc2)c2ccccc2n1 | < 3.70 | 5.20 | – |
| Cc1cccc2c1Oc1ncccc1C2NC(=O)CN(C)C (stereo unspecified) | < 3.70 | < 3.70 | – |
| CC1(C)OC(=S)N(c2ccccc2)C12C=Cc1cc3ccccc3cc1O2 (stereo unspecified) | < 3.70 | 4.10 | – |
| NC(=O)C(=Cn1c(=S)[nH]c2ccccc21)C(N)=O | < 3.70 | < 3.70 | – |
| CC1=C(C)C(=O)C(C2=CC(=O)C=CC2=O)=C(C2=CC(=O)C=CC2=O)C1=O | < 3.70 | 5.01 | – |
| CC(C)(C)c1cc(N=O)cc(C(C)(C)C)c1O | < 3.70 | 4.73 | – |
| CCOC(=O)c1ccc(N2C(=S)N(C(=O)c3ccccc3)C(=Nc3ccccc3)C2=Nc2ccccc2)cc1 | < 3.70 | 5.55 | – |
| C[N+]12CCCCC1C(CN1C(=O)c3ccccc3C1=O)CCC2 (stereo unspecified) | 4.23 | < 3.70 | – |
| CC(=O)NC1C(=O)N(c2ccccc2)C1c1ccccc1 (stereo unspecified) | < 3.75 | < 3.75 | – |
| CCOC(=O)/C(=C\n1c(=O)sc2ccccc21)C(=O)c1ccccc1 | < 3.70 | 4.37 | – |
| O=C1CCCN(c2ccccc2)N1 | < 2.85 | < 2.85 | – |
| NNC(=O)CC(=O)Nc1ccc(S(=O)(=O)c2ccc(NC(=O)CC(=O)NN)cc2)cc1 | < 3.70 | < 3.70 | – |
